Literature values as cited in US20060159724A1, “Nutritional supplement for the management of weight” (priority 2000, published 2006).
Like-named read-outs stand apart in the source and are kept apart here.

Key:
[1] = area under glycemic response curve, 2-hour period after 50 g carbohydrate, divided by standard (white bread or glucose)
[2] = first 6-week period, no dietary restrictions

| SMILES | decrease in carbohydrate intake (obese subjects; [2]) | subjects with early satiety (obese subjects; [2]) [%] | weight loss (obese subjects; obese subjects, 900 mg 5-HTP three times a day 30 minutes before meals, two 6-week periods, p<0.02 vs control arm) [%] | subjects with early satiety (obese subjects; second 6-week period, energy-restricted diet of 1,200 kcal) [%] | glycemic index (GI) [1] |
| --- | --- | --- | --- | --- | --- |
| N[C@@H](Cc1c[nH]c2ccc(O)cc12)C(=O)O [5-HTP, 5-hydroxytryptophan] | about 50% | 100 | 5 | 90 |  |
| O=C(CO)[C@@H](O)[C@H](O)[C@H](O)CO [Fructose, fructose] |  |  |  |  | 32 |
